Experiments:
HeLa cells = assay: MTT cytotoxicity assay on HeLa cells; assay type: cell-based; conditions: 2.5 µM, 72 h, mean±SD, untreated control about 100
Method: (§1) Cytotoxicity screens were performed to assess the in vitro anticancer activity of the synthesized A-ring-linked 2-pyrazoles of estradiol, the pyrazolocoumarin-estradiol hybrids, and their structurally simplified non-steroidal analogs on various cancerous cell lines such as MCF-7, PC-3, DU145, and HeLa and on non-cancerous MRC-5 fibroblasts. The 2-acetyl-phenol starting materials (4, 5, and 15) were also included for comparison. All compounds were applied in 2.5 µM concentration for 72 h. The obtained cell viability data were used to construct a heat map (Figure 2) in order to select compounds that exert cancer cell line-specific cytotoxicity. […] Furthermore, some compounds discriminated only DU145 cells and could eliminate these type of prostate cancer cells.
(§2) To understand structure-function relationships, we also included the structural analogs of the selected compounds, namely 7a (C-17 acetate of 8a), 8c (C-17 OH counterpart of 7c), and 9a (steroidal pair of 19a) into subsequent analyses. […] For this, compounds were applied on MCF-7, PC-3, DU145, and HeLa and on non-cancerous MRC-5 fibroblasts in various concentrations for 72 h or were treated with cisplatin at different concentrations. On the viability data, dose–response curves were fitted (Figure S1) and IC50 values were calculated accordingly (Table 3). In agreement with the primary cytotoxicity screen (Table S1), the obtained IC50 concentrations clearly indicated which compound was selectively effective on one or more cancer cell lines. […] Typically, acetylated steroidal pyrazoles were less favorable than deacetylated counterparts due to reduced cancer cell selectivity (7c, 10a).
(§3) To evaluate the in vitro pharmacological effects of the synthesized molecules, each compound was first dissolved in cell culture grade DMSO (Sigma) to a final concentration of 10 mM. Using MTT colorimetric assay, the cytotoxicity of these compounds was evaluated on cancerous (MCF-7, HeLa, DU145, PC-3) and non-cancerous (MRC-5) cell lines. Briefly, 5000 cells/well of each cell line were seeded in 96-well plates and were left to grow overnight in a 5% CO2 atmosphere at 37 °C. On the next day, cells were treated with each derivative separately, in case of the primary screen, or only with the selected compounds upon IC50 determination. Cells were incubated with the test compounds for 72 h in a 5% CO2 atmosphere at 37 °C. End point was measured by incubating cells for 1 h with 0.5 mg/mL of MTT reagent (Serva) dissolved in serum free culture medium. The formazan crystals formed by metabolically active cells were later dissolved in DMSO. Optical density of the obtained solutions was measured at 570 nm using a Synergy HTX plate reader. […] The analysis and conclusions were made based on three independent experiments. Normalized data were analyzed and the heat map was constructed using GraphPad Prism 7 software.

MRC-5 fibroblasts = assay: MTT cytotoxicity assay on non-cancerous MRC-5 fibroblasts; assay type: cell-based; conditions: 2.5 µM, 72 h, MTT, mean±SD, untreated control about 100
Method: as §1, §2, §3

PC-3 cells = assay: MTT cytotoxicity assay on PC-3 prostate cancer cells; assay type: cell-based; conditions: 2.5 µM, 72 h, mean±SD, untreated control about 100
Method: as §1, §2, §3

MCF-7 cells = assay: MTT cytotoxicity assay on MCF-7 cells; assay type: cell-based; conditions: 2.5 µM, 72 h, mean±SD, untreated control about 100
Method: as §1, §2, §3

DU145 cells = assay: MTT cytotoxicity assay on DU145 prostate cancer cells; assay type: cell-based; conditions: 2.5 µM, 72 h, mean±SD, untreated control about 100
Method: as §1, §2, §3

CC(=O)O[C@H]1CC[C@H]2[C@@H]3CCc4cc(O)c(-c5nn(-c6ccc(Cl)cc6)cc5CO)cc4[C@H]3CC[C@]12C [Compound 10c]
primary growth inhibitory screen, cell viability, HeLa (HeLa cells): 72.4±4.2
primary growth inhibitory screen, cell viability, MRC-5 (MRC-5 fibroblasts): 96.4±10.1
primary growth inhibitory screen, cell viability, PC-3 (PC-3 cells): 81.6±6.8
primary growth inhibitory screen, cell viability, MCF-7 (MCF-7 cells): 63.2±2.2
primary growth inhibitory screen, cell viability, DU145 (DU145 cells): 77.3±6.3
melting point: 288 to 290 °C

— article PMC7571145, “Multistep Synthesis and In Vitro Anticancer Evaluation of 2-Pyrazolyl-Estradiol Derivatives, Pyrazolocoumarin-Estradiol Hybrids and Analogous Compounds” (Molecules, 2020)
